What was measured:
[1] = system: adult Ctenocephalides felis fleas; assay: Contact activity against adult Ctenocephalides felis (Example 4); details: adult C. felis, coated pipe cleaner in vial, 72 hours post-treatment, read-out: EC50 (contact activity, percentage mortality)
Procedure: Compounds of formulae (I), (Ia) and/or (Ib) dissolved in 100% DMSO are diluted in acetone to a desired concentration. The resulting formulation is used to coat the fibers of a 0.5-inch-long piece of pipe cleaner placed in a glass scintillation vial. The vial is capped with a rubber gasket and filter paper insert. After the acetone has evaporated, ten adult Ctenocephalides felis fleas are added to each vial. The vials are then incubated at 22° C., 80% relative humidity, and 12 hours of light/12 hours of dark until a visual evaluation for mortality is performed at 72 hours post-treatment. Compound efficacy at a given dose is expressed as percentage mortality and adjusted to remove background mortality observed in control vials containing DMSO only. A dose response series of treated vials is implemented to determine EC50 values.

[2] = system: A. aegypti L1 larvae; assay: Activity against larvae of Aedes aegypti (Example 3); details: 48 h at 27° C., read-out: EC50 (percentage of mortality, larvae)
Procedure: Eight A. aegypti L1 larvae in a total volume of 64 μL water are added to 384-well microplates containing compounds of formulae (I), (Ia) and/or (Ib) formulated in 100% DMSO. The plates are incubated for 48 h at 27° C. Individual well images are acquired and analyzed using a pipeline to quantitatively assess the amount of larvae biomass accumulating at the bottom of the well. The efficacy of a compound at a given dose is expressed as “percentage of mortality” and determined by comparison to average biomass descriptors of positive and negative control wells containing 1.0 μM Fipronil or DMSO only, respectively. Dose response assay are conducted to determine an EC50 value.

[3] = system: adult R. sanguineus ticks; assay: Contact activity against adult Rhipicephalus sanguineus (Example 5); details: coated vials, 48 hours post-treatment, read-out: EC50 (contact activity, percentage mortality)
Procedure: Compounds of formulae (I), (Ia) and/or (Ib) formulated in 100% DMSO are diluted in a solution containing acetone and Triton X-100 (0.02%). The resulting formulation is used to coat the inner walls of glass scintillation vials and the filter paper covering the cap of the vial. Once dried, ten adult R. sanguineus ticks are added to the vials. The vials are incubated at 24° C., 95% relative humidity, and 12 hours of light/12 hours of dark until evaluation. Ticks are visually evaluated for mortality at 48 hours post-treatment. Compound efficacy at a given dose is expressed as percentage mortality. A dose response series is implemented to determine EC50 values.

[4] = system: adult C. felis fleas; assay: Ingestion activity against adult Ctenocephalides felis, membrane feeding, alternative method (Examples 7 and 13); details: Ctenocephalides felis
Procedure: Selected compounds of formula (I), (Ia) and (Ib) and compound “125” of WO 2021/033141 dissolved in 100% DMSO are diluted in bovine blood with sodium heparin anti-coagulant. The resulting formulation is offered via an artificial membrane feeding system to approximately 15 adult C. felis fleas previously dispensed into 24-well plates. The plates are then incubated in a double-chambered device. Visual evaluation for mortality is performed at 48 hours post-treatment. Compound efficacy at a given dose is expressed as percentage mortality and determined by normalization to positive and negative controls. A dose response series is implemented to determine EC50 values.
Compounds of formulae (I), (Ia) and/or (Ib) dissolved in 100% DMSO are diluted in bovine blood with sodium heparin anti-coagulant. The resulting formulation is offered via an artificial membrane feeding system to approximately 15 adult C. felis fleas previously dispensed into 24-well plates. The plates are then incubated in a double-chambered device. Visual evaluation for mortality is performed at 48 hours post-treatment. Compound efficacy at a given dose is expressed as percentage mortality and determined by normalization to positive and negative controls. A dose response series is implemented to determine EC50 values.

[5] = system: Laodelphax striatellus; assay: Insecticidal test on Laodelphax striatellus (Example 16); assay type: in vivo; details: 192 h, 500 ppm, rice seedling dip, 3rd-instar nymphs, 8 days after inoculation, read-out: activity level (corrected mortality rate)
Procedure: The compounds of formula (I), (Ia) and/or (Ib) of the present invention or salts thereof are separately dispersed in water and diluted to 500 ppm and 50 ppm. Rice plant seedlings are dipped in the dispersion for about 30 seconds. After air dried, the seedlings are put into a separate glass test tube and inoculated with ten 3rd-instar nymphs of Laodelphax striatellus and then the glass test tube is kept in a room at 25° C. 8 days after the inoculation, the numbers of the dead and alive insects are counted. The corrected mortality rate is calculated according to the following formula and the insecticidal activity is evaluated according to the following criteria.

[6] = system: adult C. felis fleas; assay: Ingestion activity against adult Ctenocephalides felis, membrane feeding, motility (Example 6); details: 48 h, bovine blood via artificial membrane, 48h post treatment, read-out: EC50 (ingestion activity, % motility reduction)
Procedure: Compounds of formulae (I), (Ia) and/or (Ib) dissolved in 100% DMSO are added to bovine blood and offered via an artificial membrane feeding system to adult C. felis fleas. The motility of fleas is then visually inspected 48h post treatment. Efficacy is expressed in % motility reduction compared to controls containing blood treated with DMSO only. A dose response series is implemented to determine EC50 values.

[7] = system: Myzus persicae; assay: Insecticidal test on Myzus persicae (Example 17); assay type: in vivo; details: 144 h, 500 ppm, foliar application on Chinese cabbage, 6 days after application, read-out: control efficacy level (control rate)
Description: The compounds of formula (I), (Ia) and/or (Ib) of the present invention or salts thereof are separately dispersed in water and diluted to 500 ppm and 50 ppm. Chinese cabbage plants are planted in plastic pots (diameter: 8 cm, height: 8 cm). Aphids (Myzus persicae) are propagated on the plants and then the number of surviving aphids is counted. The dispersion is applied to the foliage of the potted plants. After the plants are air dried, these are kept in a greenhouse. 6 days after the application, the number of the alive insects is counted on the plants. The control rate is calculated according to the following formula and the control efficacy is evaluated according to the following criteria. [formula] • Ta: the number of alive insects before the foliar application in a treated plot • T: the number of alive insects after the foliar application in a treated plot • Ca: the number of alive insects before the foliar application in an untreated plot • C: the number of alive insects after the foliar application in an untreated plot • A: the control rate is 100% • B: the control rate is 90 to 99% • C: the control rate is 80 to 89% • D: the control rate is 50 to 79%

[8] = system: Plutella xylostella; assay: Insecticidal test on Plutella xylostella (Example 15); assay type: in vivo; details: 144 h, 500 ppm, Chinese cabbage seedling dip, 6 days after dip treatment, read-out: activity level (corrected mortality rate)
Procedure: The compounds of formula (I), (Ia) and/or (Ib) of the present invention or salts thereof are separately dispersed in water and diluted to 500 ppm and 50 ppm. Ten adults of Plutella xylostella are released onto Chinese cabbage seedlings and allowed to lay eggs thereon. 2 days after the release of the adults, the seedling is dipped in the dispersion for about 30 seconds. After air dried, the seedling is kept in a room at 25° C. 6 days after the dip treatment, the numbers of the dead and alive insects are counted. The corrected mortality rate is calculated according to the following formula and the insecticidal activity is evaluated according to the following criteria.

[9] = system: Spodoptera litura; assay: Insecticidal test on Spodoptera litura (Example 14); assay type: in vivo; details: foliar, 192 h, 500 ppm, cabbage leaf dip, 2nd-instar larvae, 8 days after inoculation, read-out: activity level (corrected mortality rate)
Procedure: The compounds of formula (I), (Ia) and/or (Ib) of the present invention or salts thereof are separately dispersed in water and diluted to 500 ppm and 50 ppm. Cabbage leaves are dipped in the dispersion for about 30 seconds. After air dried, the leaves are placed in a plastic Petri dish with a diameter of 9 cm and inoculated with ten 2nd-instar larvae of Spodoptera litura, after which the dish is closed and then allowed to stand in a room at 25° C. 8 days after the inoculation, the numbers of the dead and alive insects are counted. The corrected mortality rate is calculated according to the following formula and the insecticidal activity is evaluated according to the following criteria.
[formula] [formula] • A: the corrected mortality rate is 100% • B: the corrected mortality rate is 90 to 99% • C: the corrected mortality rate is 80 to 89% • D: the corrected mortality rate is 50 to 79%

[10] = adult C. felis, bovine blood with sodium heparin, membrane feeding, 48 hours post-treatment, read-out: EC50 (ingestion activity, percentage mortality, alternative method)
[11] = alternative method according to Example 7, mortality at 48 hours post-treatment, read-out: C. felis membrane feeding (ingestion/blood feeding) activity EC50

| SMILES | EC50 [1] | EC50 [2] | EC50 [3] | EC50 [4, 10] | EC50 [4, 11] | mortality at 500 ppm [5] | EC50 [6] | pest or weed control at 500 ppm [7] | mortality at 500 ppm [8] | mortality at 500 ppm [9] |
| --- | --- | --- | --- | --- | --- | --- | --- | --- | --- | --- |
| CCS(=N)(=O)c1cc(-c2ccc(C3CC3)cc2)cnc1-c1nc2cc(C(F)(F)C(F)(F)F)cnc2n1C (centres unmarked) [Compound 11] | < 10 µM | < 40 nM | 10 to 100 µM | < 1000 nM | 816 nM | 100% | < 1000 nM | 100% | 100% | 100% |
| CCS(=N)(=O)c1cc(-c2ccc(C3(F)CC3)cc2)cnc1-c1nc2cc(C(F)(F)C(F)(F)F)nnc2n1C (centres unmarked) [Compound 14] | < 10 µM | < 40 nM | 10 to 100 µM | < 1000 nM | 195 nM | 100% | < 1000 nM | 100% | 100% | 100% |

Source: US20240336615A1, “CYCLOPROPYL-(HETERO)ARYL-SUBSTITUTED ETHYL-SULFOXIME-PYRIDINE DERIVATIVES” (Boehringer Ingelheim Vetmedica GmbH, priority 2023, published 2024)
